Measured values published in PMC3745399, “An NO Donor Approach to Neuroprotective and Procognitive Estrogen Therapy Overcomes Loss of NO Synthase Function and Potentially Thrombotic Risk” (PLoS ONE, 2013).

Assays:
ERβ = ERβ (Homo sapiens, UniProt Q92731); assay: ER binding affinity by competitive E2 displacement (ERβ)
Description: Raloxifene and DMA are structurally related SERMs acting as antagonists of estrogen action in mammary and endometrial cells. […] ER binding affinity was measured by competitive E2 displacement as previously described.

[1] = Anticoagulation: PT and aPTT after i.p. dosing; format: in vivo, mouse; details: for PT / aPTT / anticoagulant effect (PT, aPTT) at 3 h: C57Bl/6 mice, 2 mg/kg i.p.; for PT / aPTT: 1 h; for anticoagulation (PT and aPTT) with NOS blockade: L-NAME 50 mg/kg 30 min prior to collection, SERM 2 mg/kg 1 h prior
Description: Figure 6 Effect of SERMs and NO-SERM on […] clotting cascades. Blood was collected by cardiac puncture and PTT and aPTT were determined 1 or 3 h after i.p. drug administration (2 mg/kg).
SERMs were injected (i.p.) into 6–8 month old male C57Bl/6 mice 1 h before blood collection, and L-NAME was injected (i.p.) 30 min before blood collection. The mouse was sedated by exposing it to CO2 until unconscious and blood was collected in 4.5 mL BD Vacutainer Glass Evacuated Blood Collection Tubes (with 0.105 M buffered sodium citrate) by cardiac puncture. The blood samples were centrifuged at 300 g for 30 min to separate the plasma from the blood, and then 200 uL of plasma was taken from each sample and the PT and aPTT were measured using an ACL 7000 Coagulation Analyzer. The analyzer injects […] of PT-fibrinogen (lyophilized rabbit brain calcium thromboplastin with stabilizers, polybrene, buffer and preservatives) to 75 µL of plasma sample to measure the PT, and 75 µL of synthAFAX (0.025 M)+100 µL of CaCl2 (0.02 M) were added to 75 µL of plasma to measure aPTT. The analysis was at 37°C using a photo sensor at λ = 671 nm.

ERα = biological target: T1, ERα (Homo sapiens, UniProt P03372); assay: ER binding affinity by competitive E2 displacement (ERα)
T1 sequence (P03372 1-595): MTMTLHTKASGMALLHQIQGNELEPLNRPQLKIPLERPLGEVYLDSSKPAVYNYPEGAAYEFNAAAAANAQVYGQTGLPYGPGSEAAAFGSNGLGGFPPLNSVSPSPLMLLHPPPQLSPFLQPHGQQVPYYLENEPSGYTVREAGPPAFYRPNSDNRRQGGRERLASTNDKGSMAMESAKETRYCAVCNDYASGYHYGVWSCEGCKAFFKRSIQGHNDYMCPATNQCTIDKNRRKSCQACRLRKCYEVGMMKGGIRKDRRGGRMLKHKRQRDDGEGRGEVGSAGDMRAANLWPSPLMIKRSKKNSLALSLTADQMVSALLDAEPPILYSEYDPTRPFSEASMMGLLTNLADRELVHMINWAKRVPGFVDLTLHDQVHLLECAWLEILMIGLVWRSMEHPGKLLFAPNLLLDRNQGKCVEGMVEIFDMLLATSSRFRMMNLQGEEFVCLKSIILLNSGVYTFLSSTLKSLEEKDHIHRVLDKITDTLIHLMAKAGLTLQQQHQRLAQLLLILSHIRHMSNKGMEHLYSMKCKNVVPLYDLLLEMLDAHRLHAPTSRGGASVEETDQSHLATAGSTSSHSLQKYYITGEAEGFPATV
Description: ER binding affinity was measured by competitive E2 displacement as previously described.

[2] = system: primary cortical neurons exposed to OGD; assay: Neuroprotection in oxygen glucose deprivation (OGD), MTT; format: cell-based, rat; details: for neuroprotection with G15: 100 nM SERM + G15 100 nM (GPR30 antagonist); for neuroprotection with L-NAME: 100 nM SERM + L-NAME 100 µM (NOS antagonist), whether it attenuated neuroprotective activity; for neuroprotection with LY294002: 100 nM SERM + LY294002 10 µM (PI3K inhibitor); for neuroprotection with pertussis toxin: 100 nM SERM + pertussis toxin 100 ng/mL; for neuroprotection (cell survival by MTT): 100 nM, 2 h OGD, 24 h, no blocker, normalized to E2 10 nM (100%) and vehicle (0%)
Description: Primary neuronal cultures were subjected to 2 h OGD with compounds added at the start of OGD and inhibitors added 45 min prior to OGD. Cell survival was measured at 24 h.
Primary cultures of dissociated cortical neurons were prepared as follows; briefly, cortices were dissected from E16-18 Sprague-Dawley rats (Charles River). After removal of meninges, cortices were manually dissociated and plated at a density of 10^6 cells/mL into 96-well plates. Twenty-four hours after plating, cultures were grown in Neurobasal A media supplemented with B27, glutamine and pen/strep, with media changes every 3–4 days. In accordance with published protocols, measured levels of glia in culture after DIV2 are <0.5%. Experiments were performed at DIV 11–12.
The cell media was changed to phenol red-free growing media at least 3 h before OGD. Receptor blockers were added 45 min prior to the start of OGD, and SERMs were added at the start of OGD, with concentrations maintained through media changes. For OGD, the cells were transferred to a hypoxia chamber controlled at 5% CO2 and <1% O2, and growth media was replaced with a physiological salt solution (in mM: NaCl 116, CaCl2 1.8, MgSO4 0.8, KCl 5.4, NaHCO3 14.7, NaHPO4 1, HEPES 10, pH = 7.4). After 2 h OGD, cells were removed from the chamber and growth media was replaced. After 24 h, cell viability was measured by MTT assay using a Dynex MRX ll micro-plate spectrophotometer.

[3] = format: in vivo; details: mouse, ip, 5 mg/kg
Description: All experiments were performed on 6–8 month male C57B1/6 mice (Charles River Laboratory) or eNOS(−/−) animals. Animals were injected (i.p.) at various time points before sacrifice at the doses specified. After euthanasia via CO2, plasma was collected, and cortices and hippocampi were collected after PBS perfusion and stored at −80°C. Tissue samples were weighed and extracted with methanol. Plasma samples were extracted with cold acetonitrile. Quantitative analysis of drug concentrations in plasma and brain used internal standards spiked into plasma and brain homogenates before liquid extraction with acetonitrile or methanol, and separation and measurement was performed with LC-MS/MS tandem mass spectrometry. The supernatant (deproteinized) was analyzed by chemiluminescence with SIEVERS 280i nitric oxide analyzer.
Figure S3: SERM bioavailability in plasma and CNS of WT and eNOS (-/-) mice. […] (n=4).

ERβ, sequence (Q92731 whole entry, species assumed): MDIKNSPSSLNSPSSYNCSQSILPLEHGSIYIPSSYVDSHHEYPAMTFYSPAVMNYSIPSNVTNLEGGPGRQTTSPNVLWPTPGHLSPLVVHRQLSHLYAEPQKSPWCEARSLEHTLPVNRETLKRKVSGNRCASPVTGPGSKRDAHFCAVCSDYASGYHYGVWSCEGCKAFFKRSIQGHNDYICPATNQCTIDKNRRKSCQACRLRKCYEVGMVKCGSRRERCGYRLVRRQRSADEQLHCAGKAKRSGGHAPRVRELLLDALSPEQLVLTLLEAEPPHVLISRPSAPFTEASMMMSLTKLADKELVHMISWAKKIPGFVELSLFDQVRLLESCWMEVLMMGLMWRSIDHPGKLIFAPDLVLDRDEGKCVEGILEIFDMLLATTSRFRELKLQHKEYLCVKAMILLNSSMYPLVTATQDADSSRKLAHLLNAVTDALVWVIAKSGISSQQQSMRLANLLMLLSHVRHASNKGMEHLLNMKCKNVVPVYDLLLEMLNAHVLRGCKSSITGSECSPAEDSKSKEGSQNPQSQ

Row | SMILES | IC50 (ERβ) [µM] | PT [1] | aPTT [1] | anticoagulant effect (PT, aPTT) at 3 h [1] | anticoagulation (PT and aPTT) with NOS blockade [1] | IC50 (ERα) [µM] | neuroprotection with G15 [2] | neuroprotection with ICI 182780 ([2]; 100 nM SERM + ICI 182780 100 nM, added 45 min prior to OGD) | neuroprotection with L-NAME [2] | neuroprotection with LY294002 [2] | neuroprotection with pertussis toxin [2] | neuroprotection (cell survival by MTT) [2] | bioavailability in plasma and CNS ([3]; in vivo) | blood brain barrier permeability [3]
1 | O=[N+]([O-])OCCCC1CCN(CCOc2ccc(Oc3c(-c4ccc(O)cc4)sc4cc(O)ccc34)cc2)CC1 [NO-DMA, 3-(1-(2-(4-(6-hydroxy-2-(4-ydroxyphenyl)benzo[b]thiophen-3-yloxy)phenoxy)ethyl)piperidin-4-yl)propyl nitrate] | 0.0244 ± 0.0096 | significantly increased PT | significantly increased aPTT | remained significantly higher than control | significantly increased anticoagulation compared to control in both PT and aPTT | 0.0214 ± 0.0067 | blocked the neuroprotective activity | did not block this effect | did not | attenuated neuroprotective activity | blocked the neuroprotective activity | robust neuroprotection identical to DMA |  | 
2 | Oc1ccc(-c2sc3cc(O)ccc3c2Oc2ccc(OCCN3CCCCC3)cc2)cc1 [DMA, desmethylarzoxifene] | 0.0096 ± 0.0019 | showed a clear trend | significantly increased aPTT | decreased to that of control samples | did not persist in the presence of NOS blockade |  | blocked the neuroprotective activity |  | did not | attenuated neuroprotective activity | blocked the neuroprotective activity | robust neuroprotection | substantial bioavailability with preferential retention in the hippocampus up to 2 h after administration | substantial blood brain barrier permeability
